Here are results for 13 compounds from US4806547A, “Isoquinoline derivatives, analgesic compounds thereof and method of treating pain” (Dr. Lo. Zambeletti SPA, priority 1986, dated 1989).

Where a name gives a salt, the structure may show the parent alone. Read-outs that look alike come from different tables or passages of the source.

Assay [1] deals with μ opioid receptor (μ sites) (Cavia porcellus, UniProt A0ACM8Q262). Put plainly: Receptor binding to μ sites (3H-DAGO). As to the method:
Radio receptor binding to μ and K sites is performed on fresh guinea pig brain homogenate prepared according to Kosterlitz.
(§1) Whole brain without cerebellum is homogenized in 50 mM, Tris-buffer (pH 7.4 at 0° C.) and centrifuged at 49,000×g×10 min.
(§2) The pellet is then resuspended in the same buffer, incubated at 37° C. for 45 min. and centrifuged again.
(§3) 1.9 ml of the final homogenate (1:100 in Tris-pH 7.4, 0° C.) is used for the binding assay.
^3 H[D--Ala^2, MePhe^4, Gly--ol^5 ]
The filters are then dryed, solubilized in Filtercount and the radioactivity monitored. Non specific binding is determined in the presence of 10^-6 M Naloxone.
(§4) A concentration of radioligand near KD is used in the binding assays evaluating our compounds.

Assay [2] concerns the target T1, K (Kappa) opioid receptor (K sites) (Cavia porcellus, UniProt P41144).
T1 construct: fresh guinea pig brain homogenate; from tissue; host or cells: guinea pig whole brain without cerebellum, homogenate
Put plainly: Receptor binding to K sites (tritiated Ethylketocyclazocine). Also noted: species or system guinea pig. As to the method:
Radio receptor binding to μ and K sites is performed on fresh guinea pig brain homogenate prepared according to Kosterlitz. (1981).
as §1, §2, §3
Binding to K sites (Magnan J., 1982)
The binding of tritiated Ethylketocyclazocine to brain homogenate is measured in the presence of 100 nanomolar D--Ala--D--LeuEnkephalin (DADLE) and 100 nanomolar DAGO, added to saturate the δ and μ opioid receptors respectively.
Final homogenate with solutions of the cold ligand and of the labelled ligand is incubated for 40 min. at 25° C., filtered through Whatman GF/C glass filter discs and washed.
The radioactivity bound to the filters is counted by liquid scintillation spectrophotometry.
MR 2266.500 nM is utilized to determine the saturable binding.
For the calculation of the kinetic parameters of the binding of labelled and unlabelled ligands, the equilibrium dissociation constant (KD), the inhibition constant (Ki) and the maximum number of binding sites (B max) are determined from saturation curves and competition experiments (Hill 1910; Scatchard 1949; Cheng and Prusoff 1973); Gillan et al. 1980).
as §4

The subject of another assay is mice. The assay can be described thus: Mouse Tail-flick test (analgesic activity). The class given is in vivo, mouse (male Charles River). Conditions: 30 min after dosing; for ED50: Mus musculus, sc, 0.5 h, s.c., mice doubling the initial reaction time. As to the method: Mouse Tail-flick test (Modified from the procedure published by D'Amour et al., J. Pharm. Exptl. Ther.72, 74/1941).
Male Charles River mice, average weight 26 g, are used. Selection is carried out before beginning of experiments: only mice whose reaction time is less than 8 sec are used. They are randomly distributed into groups of 10 and dosed with compounds under test, with positive and negative controls being included.
Compounds under test are administered subcutaneously in isotonic saline in a volume of 20 ml. Kg^-1. 30 min later mice are placed again under heat source (Socrel apparatus) and reaction time is recorded.
The analgesic activity of the test compound is expressed as the percent number of mice doubling the initial time within a group. [formula]

[3] abbreviates: read-out: RECEPTOR BINDING Ki μ, guinea pig brain homogenate, 25° C., 40 min.
The mark [4] stands for this setting: guinea pig brain homogenate, 25° C., 40 min, read-out: RECEPTOR BINDING Ki μ.
[5] abbreviates: read-out: RECEPTOR BINDING Ki K, guinea pig brain homogenate, tritiated Ethylketocyclazocine with 100 nM DADLE and 100 nM DAGO, 25° C., 40 min.

T1 sequence (P41144 whole entry): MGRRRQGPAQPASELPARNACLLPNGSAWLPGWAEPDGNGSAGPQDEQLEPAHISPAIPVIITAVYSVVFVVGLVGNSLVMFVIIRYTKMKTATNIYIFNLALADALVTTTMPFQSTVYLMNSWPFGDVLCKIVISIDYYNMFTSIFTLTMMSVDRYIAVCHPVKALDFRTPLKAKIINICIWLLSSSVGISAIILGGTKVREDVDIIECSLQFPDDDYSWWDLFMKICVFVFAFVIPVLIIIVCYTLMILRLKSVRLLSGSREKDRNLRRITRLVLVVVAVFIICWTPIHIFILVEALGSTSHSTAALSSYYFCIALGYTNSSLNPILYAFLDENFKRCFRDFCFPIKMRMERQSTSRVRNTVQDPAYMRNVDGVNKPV
μ opioid receptor (μ sites), sequence (A0ACM8Q262 1-400): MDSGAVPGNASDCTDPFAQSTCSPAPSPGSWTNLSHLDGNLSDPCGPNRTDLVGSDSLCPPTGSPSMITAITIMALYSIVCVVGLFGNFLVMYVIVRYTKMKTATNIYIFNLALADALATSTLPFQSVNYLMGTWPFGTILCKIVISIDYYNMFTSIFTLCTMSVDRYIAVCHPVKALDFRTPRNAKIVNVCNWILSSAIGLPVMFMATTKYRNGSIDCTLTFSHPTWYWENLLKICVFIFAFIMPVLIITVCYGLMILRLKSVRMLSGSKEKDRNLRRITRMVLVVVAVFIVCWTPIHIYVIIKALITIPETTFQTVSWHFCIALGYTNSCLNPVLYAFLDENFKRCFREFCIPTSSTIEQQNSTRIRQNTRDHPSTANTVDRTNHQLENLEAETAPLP

Take `CN(C)CC1c2ccccc2CCN1C(=O)Cc1ccc(Cl)c(Cl)c1` (single isomer, unassigned) [Example 3, hemihydrate]: the figures for the Ki in assay [1] (setting [3]) and in assay [2] were 286 nM and 2.37 nM, respectively. In the assay with mice, this compound showed an ED50 of 0.032 mg/kg.
In the assay with mice, `O=C(Cc1ccc(Cl)c(Cl)c1)N1CCc2ccccc2C1CN1CCCC1` (single isomer, unassigned) [Example 9, (-)-1-[1-pyrrolidinylmethyl)-2-(3,4-dichlorophenylacetyl)-1,2,4-tetrahydroisoquinoline (-)-tartrate] came in with an ED50 of 0.009 mg/kg.
Take `CN(C)CC1c2ccccc2CCN1C(=O)Cc1ccc(Cl)c(Cl)c1` (stereo not drawn) [Example 1, 1-dimethylaminomethyl-2-(3,4-dichlorophenyl)-acetyl-1,2,3,4-tetrahydroisoquinoline hydrochloride]: the Ki is 415 nM in assay [1] (setting [3]); 1.59 nM in assay [2] (guinea pig brain homogenate, tritiated Ethylketocyclazocine with 100 nM DADLE and 100 nM DAGO, 25° C., 40 min, read-out: RECEPTOR BINDING Ki K). The 50% effect level in the assay on mice (ED50) was put at a dose of 0.041 mg/kg.
For `CN(C)CC1c2ccccc2CCN1C(=O)Cc1ccc(Br)cc1` (stereo not drawn) [Example 4, 2-(4-bromophenylacetyl)-1-dimethylaminomethyl-1,2,3,4-tetrahydroisoquinoline hydrochloride], the results for the Ki in assay [1] (setting [4]) and in assay [2] were 597 nM and 3.19 nM, respectively. In the assay with mice, the ED50 came out at 0.25 mg/kg.
As for `CN(C)CC1c2ccccc2CCN1C(=O)Cc1ccc([N+](=O)[O-])cc1` (stereo not drawn) [Example 5, 1-dimethylaminomethyl-2-(nitrophenylacetyl)-1,2,3,4-tetrahydroisoquinoline hydrochloride hemihydrate], the Ki in assay [1] (setting [4]) came to 655 nM; in assay [2] (setting [5]), 5.72 nM. Besides, the ED50 in the assay with mice came out at 0.23 mg/kg.
Consider `CN(C)CC1c2ccccc2CCN1C(=O)Cc1ccccc1[N+](=O)[O-]` (stereo not drawn) [Example 6, 1-dimethylaminomethyl-2-(2-nitrophenylacetyl)-1,2,3,4-tetrahydroisoquinoline hydrochloride hemihydrate], for which the inhibition constant Ki in assay [1] (setting [4]) was greater than 10000 nM; in assay [2] (setting [5]), 30.6 nM.
Consider `O=C(Cc1ccc(Cl)c(Cl)c1)N1CCc2ccccc2C1CN1CCCC1` (stereo not drawn) [Example 7, 1-[1-pyrrolidinylmethyl)-2-(3,4-dichlorophenylacetyl)-1,2,3,4-tetrahydroisoquinoline hydrochloride], for which the 50% effect level with mice (ED50) was put at a dose of 0.016 mg/kg.
Turning to `O=C(Cc1ccc(Br)cc1)N1CCc2ccccc2C1CN1CCCC1` (stereo not drawn) [Example 10, 1-(1-pyrrolidinylmethyl)-2-(4-bromophenylacetyl)-1,2,3,4-tetrahydroisoquinoline hydrochloride], the Ki in assay [1] (setting [3]) worked out at 50 nM; in assay [2] it was 0.57 nM. This compound yielded an ED50 with mice of 0.031 mg/kg.
For `O=C(Cc1ccc([N+](=O)[O-])cc1)N1CCc2ccccc2C1CN1CCCC1` (stereo not drawn) [Example 11, 1-(1-pyrrolidinylmethyl)-2-(4-nitrophenylacetyl)-1,2,3,4-tetrahydroisoquinoline hydrochloride hemihydrate], the figures for the Ki in assay [1] (setting [3]) and in assay [2] (setting [5]) were 62 nM and 0.64 nM, respectively. The same compound registered a 50% effective dose (ED50) in the assay with mice of 0.016 mg/kg.
Compound `O=C(Cc1cccc([N+](=O)[O-])c1)N1CCc2ccccc2C1CN1CCCC1` (stereo not drawn) [Example 12, 1-(1-pyrrolidinylmethyl)-2-(3-nitrophenylacetyl)-1,2,3,4-tetrahydroisoquinoline hydrochloride hydrate] registered an ED50 in the assay with mice of 0.23 mg/kg.
Turning to `O=C(Cc1ccccc1[N+](=O)[O-])N1CCc2ccccc2C1CN1CCCC1` (stereo not drawn) [Example 13, 1-(1-pyrrolidinylmethyl)-2-(2-nitrophenylacetyl)-1,2,3,4-tetrahydroisoquinoline hydrochloride hemihydrate], the Ki in assay [1] (setting [4]) is 1850 nM; in assay [2] (setting [5]), 7.94 nM.
With `O=C(Cc1ccc(C(F)(F)F)cc1)N1CCc2ccccc2C1CN1CCCC1` (stereo not drawn) [Example 14, 1-(1-pyrrolidinylmethyl)-2-(4-trifluoromethylacetyl)-1,2,3,4-tetrahydroisoquinoline hydrochloride], the ED50 in the assay with mice came out at 0.33 mg/kg.
Turning to `N#Cc1ccc(CC(=O)N2CCc3ccccc3C2CN2CCCC2)cc1` (stereo not drawn) [Example 15, 1-(1-pyrrolidinylmethyl)-2-(4-cyanophenylacetyl)-1,2,3,4-tetrahydroisoquinoline hydrochloride sesquihydrate], in the assay on mice (at 1 mg/kg s.c.), the “MOUSE TAIL FLICK % protection” value worked out at 70%.
